# Activity calls are given as the source filed them. No cut-off for these calls is given here.
# Assays:
# [1] = Antitumor activity against human PDX L36 cells xenografted in mouse assessed as tumor growth inhibition at 1.5 mg/kg administered daily measured for 20 days relative to control; type: functional; settings: PDX LX36, 480 h, time 20 day, read-out: TGI
# [2] = Effect on cleaved PARP level in human NCI-H510 cells assessed as fold change at 10 nM measured after 14 days by Western blot analysis (reference value: 1.00); type: functional, NCI-H510A; settings: time 14 day
# [3] = Effect on cleaved PARP level in human COLO-668 cells assessed as relative expression at 100 nM measured after 14 days by Western blot analysis (reference value: 3.50); type: functional; settings: time 14 day
# [4] = Effect on cleaved PARP level in human NCI-H1694 cells assessed as relative expression at 10 nM measured after 10 days by Western blot analysis (reference value: 0.31); type: functional; settings: time 10 day
# [5] = Effect on cleaved PARP level in human NCI-H1417 cells assessed as relative expression at 100 nM measured after 7 days by Western blot analysis (reference value: 0.10); type: functional; settings: time 7 day
# [6] = Toxicity in dog assessed as neutrophenia measured for 28 days; set-up: species or system Canis lupus familiaris; settings: in vivo, 672 h, time 28 day
# [7] = Effect on cleaved PARP level in human NCI-H889 cells assessed as fold change at 100 nM measured after 14 days by Western blot analysis (reference value: 1.00); type: functional; settings: time 14 day
# [8] = Effect on cleaved PARP level in human NCI-H524 cells assessed as fold change at 1000 nM measured after 7 days by Western blot analysis (reference value: 1.00); type: functional; settings: time 7 day
# [9] = Effect on cleaved PARP level in human NCI-H1694 cells assessed as relative expression at 1000 nM measured after 14 days by Western blot analysis (reference value: 0.25); type: functional; settings: time 14 day
# [10] = Effect on cleaved PARP level in human NCI-H1417 cells assessed as relative expression at 1000 nM measured after 10 days by Western blot analysis (reference value: 0.19); type: functional; settings: time 10 day
# [11] = test system: NCI-H526; assay: Antitumor activity against human NCI-H526 cells xenografted in nude mouse assessed as mean tumor volume at 1.5 mg/kg, po administered daily measured twice weekly (reference value: 2359 +/- 247 mm3); type: functional
# [12] = Effect on cleaved PARP level in human NCI-H69 cells assessed as fold change at 10 nM measured after 7 days by Western blot analysis (reference value: 1.00); type: functional; settings: time 7 day
# [13] = Effect on cleaved PARP level in human NCI-H1694 cells assessed as fold change at 10 nM measured after 14 days by Western blot analysis (reference value: 1.00); type: functional; settings: time 14 day
# [14] = test system: NCI-H526; assay: In vivo inhibition of LSD1 in human NCI-H526 cells xenografted in nude mouse assessed as change in TOX3 gene expression administrated daily for 5 days by qRT-PCR analysis; type: functional, organism-based; settings: dose 0.02-135 mg/kg, time 5.0 day
# [15] = test system: NCI-H526; assay: Effect on global H3K4me2 level in human NCI-H526 cells at 10 to 1000 nM measured after 24 hrs by Western blot analysis; type: functional, cell-based; settings: dose 10-1000 nM
# [16] = Effect on cleaved PARP level in human NCI-H510 cells assessed as relative expression at 10 nM measured after 14 days by Western blot analysis (reference value: 0.01); type: functional, NCI-H510A; settings: time 14 day
# [17] = Toxicity in rat assessed as morbidity measured for 28 days; settings: in vivo, 672 h, time 28 day
# [18] = Effect on cleaved PARP level in human NCI-H69 cells assessed as fold change at 1000 nM measured after 14 days by Western blot analysis (reference value: 1.00); type: functional; settings: time 14 day
# [19] = Effect on cleaved PARP level in human NCI-H524 cells assessed as fold change at 100 nM measured after 14 days by Western blot analysis (reference value: 1.00); type: functional; settings: time 14 day
# [20] = Effect on cleaved PARP level in human NCI-H69 cells assessed as relative expression at 100 nM measured after 10 days by Western blot analysis (reference value: 0.03); type: functional; settings: time 10 day
# [21] = test system: NCI-H526; assay: In vivo inhibition of LSD1 in human NCI-H526 cells xenografted in nude mouse assessed as change in TOX3 gene expression measured after 24 hrs post single administration by qRT-PCR analysis; type: functional, organism-based; settings: dose 0.06-135 mg/kg
# [22] = Half life in mouse blood at 5 mg/kg, po by HPLC/MS/MS analysis; type: ADME, organism-based
# [23] = test system: NCI-H1417; assay: Antitumor activity against human NCI-H1417 cells xenografted in nude mouse assessed as decrease in GRP expression at 1.5 mg/kg administrated daily by qRT-PCR analysis; type: functional, organism-based; settings: time 1-14 day, TDE = time-dependent effect
# [24] = Effect on cleaved PARP level in human NCI-H1417 cells assessed as fold change at 10 nM measured after 14 days by Western blot analysis (reference value: 1.00); type: functional; settings: time 14 day
# [25] = Effect on cleaved PARP level in human NCI-H1417 cells assessed as relative expression at 10 nM measured after 7 days by Western blot analysis (reference value: 0.10); type: functional; settings: time 7 day
# [26] = Effect on cleaved PARP level in human NCI-H524 cells assessed as fold change at 100 nM measured after 10 days by Western blot analysis (reference value: 1.00); type: functional; settings: time 10 day
# [27] = Effect on cleaved PARP level in human NCI-H526 cells assessed as relative expression at 1000 nM measured after 14 days by Western blot analysis (reference value: 0.66); type: functional; settings: time 14 day
# [28] = Effect on cleaved PARP level in human NCI-H146 cells assessed as fold change at 10 nM measured after 14 days by Western blot analysis (reference value: 1.00); type: functional; settings: time 14 day
# [29] = test system: NCI-H526; assay: In vivo inhibition of LSD1 in human NCI-H526 cells xenografted in nude mouse assessed as change in IGFBP2 gene expression measured after 24 hrs post single administration by qRT-PCR analysis; type: functional, organism-based; settings: dose 0.06-135 mg/kg
# [30] = Effect on cleaved PARP level in human NCI-H510 cells assessed as relative expression at 1000 nM measured after 14 days by Western blot analysis (reference value: 0.01); type: functional, NCI-H510A; settings: time 14 day
# [31] = Effect on cleaved PARP level in human NCI-H526 cells assessed as relative expression at 1000 nM measured after 10 days by Western blot analysis (reference value: 0.81); type: functional; settings: time 10 day
# [32] = Oral bioavailability in mouse at 5 mg/kg by HPLC/MS/MS analysis; type: ADME, organism-based; settings: in vivo
# [33] = Effect on cleaved PARP level in human NCI-H69 cells assessed as fold change at 10 nM measured after 14 days by Western blot analysis (reference value: 1.00); type: functional; settings: time 14 day
# [34] = Effect on cleaved PARP level in human NCI-H510 cells assessed as fold change at 100 nM measured after 7 days by Western blot analysis (reference value: 1.00); type: functional, NCI-H510A; settings: time 7 day
# [35] = test system: NCI-H526; assay: In vivo inhibition of LSD1 in human NCI-H526 cells xenografted in nude mouse assessed as change in ANXA6 gene expression measured after 24 hrs post single administration by qRT-PCR analysis; type: functional, organism-based; settings: dose 0.06-135 mg/kg
# [36] = test system: NCI-H510A; assay: Effect on NCAM gene expression in human NCI-H510A cells at 1 uM measured after 4 days by qRT-PCR analysis; type: functional, cell-based; settings: time 4.0 day
smiles,measurement,setting,value
O=C(O)c1ccc(CN2CCC(CN[C@@H]3C[C@H]3c3ccccc3)CC2)cc1 [GSK2879552],inhibition in vivo at 1.5 mg/kg,[1],19%
same,fold change (FC),[2],1.79
same,Activity,[3],0.89
same,Activity,[4],0.27
same,Activity,[5],0.29
same,Activity,[6],Toxic
same,fold change (FC),[7],2.51
same,fold change (FC),[8],1.77
same,Activity,[9],0.21
same,Activity,[10],0.4
same,Activity,[11],1113 mm3
same,fold change (FC),[12],1.26
same,fold change (FC),[13],0.85
same,inhibition,[14],Dose-Dependent Effect
same,Activity,[15],inactive
same,Activity,[16],0.32
same,Activity,[17],Toxic
same,fold change (FC),[18],5.16
same,fold change (FC),[19],0.74
same,Activity,[20],0.06
same,inhibition,[21],Dose-Dependent Effect
same,half-life,[22],1.9 h
same,Activity,[23],Tde
same,fold change (FC),[24],0.82
same,Activity,[25],0.16
same,fold change (FC),[26],0.71
same,Activity,[27],0.9
same,fold change (FC),[28],0.64
same,inhibition,[29],Dose-Dependent Effect
same,Activity,[30],0.47
same,Activity,[31],1.15
same,bioavailability,[32],59.2%
same,fold change (FC),[33],1.66
same,fold change (FC),[34],1.84
same,inhibition,[35],Dose-Dependent Effect
same,Activity,[36],inactive
